Values quoted from earlier work, collected in US6770295B1 (Pharmacia AB, priority 1998, dated 2004).

Details: following oral administration

## CCN(CC)CC#CCOC(=O)C(O)(c1ccccc1)C1CCCCC1 (racemic) [Oxybutynin, 4-diethylamino-2-butynyl-phenylcyclohexylglycolate]
  duration: three to six
